In patent US8012998B2, “Pyrrolidine aryl-ether as NK-3 receptor antagonists” (Hoffmann—LA Roche Inc., priority 2007, dated 2011) one finds Ki data, which are given here for 10 compounds.

In this assay the target is T1, human NK3 receptor (Homo sapiens, UniProt P29371).
T1 construct: expressed in transfected cells; host or cells: HEK293 cells (transient expression), membrane preparation
T1 sequence (P29371 1-465): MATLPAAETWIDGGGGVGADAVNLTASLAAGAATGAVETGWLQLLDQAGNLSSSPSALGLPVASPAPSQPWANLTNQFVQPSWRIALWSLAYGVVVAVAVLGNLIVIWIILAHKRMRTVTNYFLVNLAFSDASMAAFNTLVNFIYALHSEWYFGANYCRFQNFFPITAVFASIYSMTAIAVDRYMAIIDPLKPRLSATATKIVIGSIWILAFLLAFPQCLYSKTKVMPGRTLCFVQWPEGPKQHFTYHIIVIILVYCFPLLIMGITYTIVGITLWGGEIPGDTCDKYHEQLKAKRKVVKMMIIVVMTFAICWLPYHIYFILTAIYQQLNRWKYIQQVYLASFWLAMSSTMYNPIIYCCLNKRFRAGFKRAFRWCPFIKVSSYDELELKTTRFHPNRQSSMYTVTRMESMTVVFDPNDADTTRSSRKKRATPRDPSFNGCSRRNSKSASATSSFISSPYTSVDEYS
As to the kind of experiment: [3H]SR142801 competition binding assay (hNK3 receptor binding). To be noted: [3H]SR142801 radioligand; membranes from HEK293 cells transiently expressing recombinant human NK3 receptor; Ki by Cheng-Prussoff; read-out: KiNK3 h. As to the method: [^3H]SR^142801 Competition Binding Assay
hNK3 receptor binding experiment were performed using [^3H]SR^142801 (Catalog No. TRK1035, specific activity: 74.0 Ci/mmol, Amersham, GE Healthcare UK limited, Buckinghamshire, UK) and membrane isolated from HEK293 cells transiently expressing recombinant human NK3 receptor. After thawing, the membrane homogenates were centrifuged at 48,000×g for 10 min at 4° C., the pellets were resuspended in the 50 mM Tris-HCl, 4 mM MnCl2, 1 μM phosphoramidon, 0.1% BSA binding buffer at pH 7.4 to a final assay concentration of 5 μg protein/well. […] At the end of the incubation, membranes were filtered onto unitfilter (96-well white microplate with bonded GF/C filter preincubated 1 h in 0.3% PEI +0.3% BSA, Packard BioScience, Meriden, Conn.) with a Filtermate 196 harvester (Packard BioScience) and washed 4 times with ice-cold 50 mM Tris-HCl, pH 7.4 buffer. Nonspecific binding was measured in the presence of 10 μM SB222200 for both radioligands. The radioactivity on the filter was counted (5 min) on a Packard Top-count microplate scintillation counter with quenching correction after addition of 45 μl of microscint 40 (Canberra Packard S.A., Zutrich, Switzerland) and shaking for 1 h. Inhibition curves were fitted according to the Hill equation: y=100/(1+(x/IC50)^nH), where nH=slope factor using Excel-fit 4 software (Microsoft). IC50 values were derived from the inhibition curve and the affinity constant (Ki) values were calculated using the Cheng-Prussoff equation Ki=IC50/(1+[L]/KD) where [L] is the concentration of radioligand and KD is its dissociation constant at the receptor, derived from the saturation isotherm. All experiments were performed in duplicate and the mean ± standard error (SEM) of the individual Ki values was calculated.

Structures are written as SMILES. pKi: −log10 of the molar value.

As for `Cc1cc(C(=O)N2C[C@H]([C@H](CO)Oc3ccc(Cl)cn3)[C@@H](c3ccc(Cl)c(Cl)c3)C2)cnn1` [Example 112, [(3R,4S)-3-[(R)-1-(5-Chloro-pyridin-2-yloxy)-2-hydroxy-ethyl]-4-(3,4-dichloro-phenyl)-pyrrolidin-1-yl]-(6-methyl-pyridazin-4-yl)-methanone], the pKi is 8.30.
The same measure for `Cc1noc(-c2ccc(C(=O)N3C[C@H]([C@H](C)Oc4ccc(C#N)cn4)[C@@H](c4ccc(Cl)c(Cl)c4)C3)cc2)n1` (racemic) [Example 60, 6-((SR)-1-{(3RS,4SR)-4-(3,4-Dichloro-phenyl)-1-[4-(3-methyl-[1,2,4]oxadiazol-5-yl)-benzoyl]-pyrrolidin-3-yl}-ethoxy)-nicotinonitrile]: 8.96.
Take `C[C@@H](Oc1ccc(Cl)cn1)[C@@H]1CN(C(=O)c2ccc(N(C)C)nc2)C[C@H]1c1ccc(Cl)c(Cl)c1` (racemic) [Example 19, [(3SR,4RS)-3-[(RS)-1-(5-Chloro-pyridin-2-yloxy)-ethyl]-4-(3,4-dichloro-phenyl)-pyrrolidin-1-yl]-(6-dimethylamino-pyridin-3-yl)-methanone]: the pKi was 8.24.
Turning to `COc1ccc(C(=O)N2C[C@@H]([C@@H](C)Oc3ccc(C(F)(F)F)cc3)[C@H](c3ccc(Cl)c(Cl)c3)C2)cn1` (racemic) [Example 9, {(3RS,4SR)-3-(3,4-Dichloro-phenyl)-4-[(RS)-1-(4-trifluoromethyl-phenoxy)-ethyl]-pyrrolidin-1-yl}-(6-methoxy-pyridin-3-yl)-methanone], the pKi is 7.10.
For `Cc1ccc(C(=O)N2C[C@H]([C@H](C)Oc3ccc(C#N)cn3)[C@@H](c3ccc(Cl)c(Cl)c3)C2)cn1` (racemic) [Example 68, 6-{(SR)-1-[(3RS,4SR)-4-(3,4-Dichloro-phenyl)-1-(6-methyl-pyridine-3-carbonyl)-pyrrolidin-3-yl]-ethoxy}-nicotinonitrile], the pKi was 7.83.
Take `Cc1nccc(C(=O)N2C[C@H]([C@H](C)Oc3ccc(C#N)cn3)[C@@H](c3ccc(Cl)c(Cl)c3)C2)n1` (racemic) [Example 95, 6-{(SR)l-1[-(3RS,4SR)-4-(3,4-Dichloro-phenyl)-1-(2-methyl-pyrimidine-4-carbonyl)-pyrrolidin-3-yl]-ethoxy}-nicotinonitrile]: the pKi was 7.28.
Take `C[C@H](Oc1ccc(Cl)cn1)[C@H]1CN(C(=O)c2ccc(C#N)nc2)C[C@@H]1c1ccc(Cl)c(Cl)c1` (single isomer, unassigned) [Example 54]: the pKi is 8.70.
The same measure for `C[C@@H](Oc1ccc(Cl)cn1)[C@@H]1CN(C(=O)c2ccc(CC#N)o2)C[C@H]1c1ccc(Cl)c(Cl)c1` (racemic) [Example 30, {5-[(3SR,4RS)-3-[(RS)-1-(5-Chloro-pyridin-2-yloxy)-ethyl]-4-(3,4-dichloro-phenyl)-pyrrolidine-1-carbonyl]-furan-2-yl}-acetonitrile]: 7.10; for `C[C@@H](Oc1ccc(Cl)cn1)[C@@H]1CN(C(=O)c2ccc(CN(C)C)nc2)C[C@H]1c1ccc(Cl)c(Cl)c1` (racemic) [Example 39, [(3SR,4RS)-3-[(RS)-1-(5-Chloro-pyridin-2-yloxy)-ethyl]-4-(3,4-dichloro-phenyl)-pyrrolidin-1-yl]-(6-dimethylaminomethyl-pyridin-3-yl)-methanone]: 8.03; for `Cc1cc(C(=O)N2C[C@@H]([C@@H](C)Oc3ccc(Cl)cn3)[C@H](c3ccc(Cl)c(Cl)c3)C2)c(C)n1C1CC1` (racemic) [Example 31, [(3SR,4RS)-3-[(RS)-1-(5-Chloro-pyridin-2-yloxy)-ethyl]-4-(3,4-dichloro-phenyl)-pyrrolidin-1-yl]-(1-cyclopropyl-2,5-dimethyl-1H-pyrrol-3-yl)-methanone]: 8.30.
